Common to all, as to format: in vivo
One test deals with Spodoptera frugiperda. The experiment in a line: Spodoptera frugiperda test (SPODFR spray treatment). To be noted: application rate 100 g/ha; maize leaf discs; after 7 days. In a few lines:
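Maize leaf discs sprayed with active ingredient formulated in acetone/dimethylformamide with emulsifier, diluted in emulsifier-containing water to the desired concentration. After drying, discs were populated with armyworm caterpillars. Efficacy (%) scored after 7 days: 100% all caterpillars killed, 0% none killed.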

A further test concerns Phaedon cochleariae. The experiment in a line: Phaedon test (PHAECO spray treatment). To be noted: application rate 100 g/ha, Chinese cabbage leaf discs, after 7 days. In a few lines:
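Chinese cabbage leaf discs were sprayed with compound in acetone/DMF with emulsifier, diluted in water to the test concentration. After drying, discs were infested with mustard beetle larvae. Efficacy in % was scored after 7 days, where 100% means all larvae were killed and 0% means none.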

The subject of another test is Thrips palmi. The experiment in a line: Thrips palmi spray test (THRIPL). To be noted: application rate 20 ppm; cucumber plants; after 6 days. How it is done: Thrips palmi Spray Test (THRIPL)
(§1) Solvent: 3 parts by weight of dimethylformamide
(§2) Emulsifier: 1 part by weight of polyoxyethylene alkylphenyl ether
(§3) To produce an appropriate active ingredient formulation, 1 part by weight of active ingredient is mixed with the stated amounts of solvent and emulsifier, and the concentrate is diluted with emulsifier-containing water to the desired concentration. If required, ammonium salts or ammonium salts and penetrants are additionally added in a concentration of 1000 ppm.
Young cucumber plants (Cucumis sativus) are sprayed with an active ingredient formulation of the desired concentration. After drying, filter paper discs with about 100 thrips eggs (Thrips palmi) are placed onto the treated plants and, to give 100% air humidity, covered with housings.
After 6 days, the efficacy in % feeding damage is determined 100% means that there is no feeding damage; 0% means that there is no difference from the untreated control.

The subject of a further test is Aulacophora femoralis. The experiment in a line: Aulacophora femoralis spray test (AUACFE). As to conditions: application rate 20 ppm; cucumber plants, L2 larvae; after 6 days. How it is done: Aulacophora femoralis Spray Test (AUACFE) Solvent: 3 parts by weight of dimethylformamide Emulsifier: 1 part by weight of polyoxyethylene alkylphenyl ether To produce an appropriate active ingredient formulation, 1 part by weight of active ingredient is mixed with the stated amounts of solvent and emulsifier, and the concentrate is diluted with emulsifier-containing water to the desired concentration. If required, ammonium salts or ammonium salts and penetrants are additionally added in a concentration of 1000 ppm. Young cucumber plants (Cucumis sativus) at the cotyledonous leaf stage are sprayed with an active ingredient formulation of the desired concentration. After drying, the treated plant material is introduced into test vessels and each is infected with 5 L2 larvae of the cucurbit leaf beetle (Aulacophora femoralis). After 6 days, the efficacy in % is determined. 100% means that all of the beetle larvae have been killed; 0% means that none of the beetle larvae have been killed.

For another test, the system named is Myzus persicae. Kind of test: Myzus persicae spray test (MYZUPE - OP/Carb-resistant). To be noted: application rate 100 ppm; aubergine plants; after 6 days. How it is done: Myzus persicae Spray Test (MYZUPE—OP/Carb-Resistant)
as §1, §2, §3
Aubergine plants (Solanum melongena) at the 2-leaf stage, which have been infested with a mixed population of the green peach aphid (Myzus persicae), are sprayed with an active ingredient formulation of the desired concentration.
After 6 days, the efficacy in % is determined. 100% means that all of the aphids have been killed; 0% means that none of the aphids have been killed.

A further test deals with adult Musca domestica. The experiment in a line: Musca domestica test (MUSCDO). As to conditions: application rate 100 ppm; treated sponge; after 2 days. In a few lines: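 Compound dissolved in DMSO and diluted with water to the desired concentration was applied to a sponge, and vessels were populated with adult flies. Kill % was scored after 2 days, where 100% means all flies dead.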

The subject of test [1] is Tetranychus urticae. The experiment in a line: Common spider mite test (TETRUR). As to conditions: application rate 100 ppm; bean leaf discs; after 6 days. How it is done:
Common Spider Mite Test (TETRUR) Solvent: 3 parts by weight of dimethylformamide Emulsifier: 1 part by weight of polyoxyethylene alkylphenyl ether To produce an appropriate active ingredient formulation, 1 part by weight of active ingredient is mixed with the stated amounts of solvent and emulsifier, and the concentrate is diluted with emulsifier-containing water to the desired concentration. If required, ammonium salts or ammonium salts and penetrants are additionally added in a concentration of 1000 ppm. Discs of bean leaves (Phaseolus vulgaris) infested by all stages of the red spider mite (Tetranychus urticae) are sprayed with an active ingredient formulation of the desired concentration. After 6 days, the efficacy in % is determined. 100% means that all of the spider mites have been killed; 0% means that none of the spider mites have been killed.

In another test the test system is Spodoptera litura. The experiment in a line: Spodoptera litura test (PRODLI). To be noted: application rate 20 ppm; synthetic feed, L3 larvae; after 6 days. How it is done: Spodoptera litura Test (PRODLI) Solvent: 3 parts by weight of dimethylformamide Emulsifier: 1 part by weight of polyoxyethylene alkylphenyl ether To produce an appropriate active ingredient formulation, 1 part by weight of active ingredient is mixed with the stated amounts of solvent and emulsifier, and the concentrate is diluted with emulsifier-containing water to the desired concentration. The base of a PET vessel (diameter 7.5 cm, depth 4 cm) is covered with 2.3 g of a pulverulent synthetic feed mixture. Then 5 ml of the active ingredient formulation are added and mixed at the same time with the synthetic feed. After gelation, 5 L3 larvae of the cotton leafworm (Spodoptera litura) are placed into each vessel. After 6 days, the efficacy in % is determined 100% means that all of the larvae have been killed; 0% means that none of the larvae have been killed.

Test [2] concerns Tetranychus urticae. The experiment in a line: Tetranychus test, OP-resistant (TETRUR spray treatment). To be noted: application rate 100 g/ha; bean leaf discs; after 6 days. In a few lines:
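Bean leaf discs infested with all stages of OP-resistant T. urticae sprayed with compound formulated in acetone/DMF plus alkylaryl polyglycol ether emulsifier, diluted in water. Efficacy (% mites killed) scored after 6 days.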

Each structure is given as a SMILES string.

Consider `CCn1c(C(=O)NC(c2cccc(C(F)(F)F)c2)C(F)(F)F)cc2cc(C(=O)NC3(C#N)CC3)c(Cl)cc21` (stereo not drawn) [Compound 7, 6-chloro-N^5-(1-cyanocyclopropyl)-1-ethyl-N^2-{2,2,2-trifluoro-1-[3-(trifluoromethyl)phenyl]ethyl}-1H-indole-2,5-dicarboxamide], for which the efficacy in % is given as 100% in the test on Spodoptera frugiperda; 100% with Aulacophora femoralis; 98% with Myzus persicae; 100% with Tetranychus urticae [1]; 100% in the test with Spodoptera litura; 100% with Tetranychus urticae [2]. In addition, the pest or weed control at 100 g/ha in the test on Phaedon cochleariae (Phaedon cochleariae, foliar, 168 h, read-out: efficacy in %) is 100%. The “efficacy in % feeding damage” value with Thrips palmi was 98%. Further, the “efficacy (kill in %)” value in the test with adult Musca domestica amounted to 100%.
Regarding `C#CCn1c(C(=O)NC(c2ccc(F)c(C(F)(F)F)c2)C(F)(F)F)cc2cc(C(=O)NC3CC3)c(Cl)cc21` (stereo not drawn) [Compound 6], the efficacy in % in the test on Spodoptera frugiperda worked out at 100%; in the test on Phaedon cochleariae it was 100%; in the test on Aulacophora femoralis, 100%; with Myzus persicae, 90%; in the test with Tetranychus urticae [1], 100%; with Spodoptera litura it was 100%. The same compound yielded an efficacy in % in the test with Tetranychus urticae [2] of 80%. The “efficacy in % feeding damage” value with Thrips palmi was determined as 90%. For the same compound, the “efficacy (kill in %)” value in the test with adult Musca domestica was found to be 100%.

Values taken from US9107411B2, “Indolecarboxamides and benzimidazolecarboxamides as insecticides and acaricides” (BAYER INTELLECTUAL PROPERTY GMBH, priority 2011, dated 2015).
